Assay results reported in US7060733B2, “Methods for treating pancreatitis with curcumin compounds and inhibitors of reactive oxygen species” (The Regents of the University of California, priority 2002, dated 2006).
“Also recorded” adds a separate entry of the source.

Tests used:
[1] = system: trypsin; assay: Trypsin activation assay in pancreatic tissue homogenates; format: in vivo, rat; details: for inhibition of intrapancreatic trypsin activation / active trypsin versus pancreatitis without curcumin: rat
Experimental: Pancreatic tissue homogenates were prepared by methods known in the art. See Gukovskaya A S, et al. (2002); Gukovsky I, et al. (1998); Sandoval D, et al. (1996) Gastroenterology 111:1081–1091; and Vaquero E, et al. (2001), which are herein incorporated by reference. Active trypsin was measured in the pancreatic tissue homogenates by using a specific substrate, Boc-GLn-Ala-Arg-A MC (Bachem, Torrance, Calif.). See Kawabata S. et al. (1988) Eur. J. Biochem. 172:17–25, which is herein incorporated by reference. Cleavage of the substrate by trypsin releases 7-amino-4-methylcoumarin (AMC), which emits fluorescence at 440 nm with excitation at 380 nm. Trypsin activity in each sample was determined using a standard curve for purified trypsin.
Specifically, about ⅓ of rat pancreas was homogenized in 2 ml ice-cold buffer A (5 mM MES, pH 6.5; 1 mM MgSO4, 250 mM sucrose). Then 2 ml of buffer B (50 mM Tris, pH 8.0; 150 mM NaCl, 1 mM CaCl2, 0.1 mg/ml BSA) was mixed with 25 μl of the homogenate and kept on ice. Then 2 μl of 20 mM substrate solution (20 mM Boc-Gln-Ala-Arg-AMC.HCl in DMSO) was added to start the reaction. The sample was mixed well and incubated at 37° C. The reaction product was measured with a spectrofluorimeter for 20 minutes at ex=380 nm; em=440 nm.

[2] = system: NF-κB; assay: EMSA for NF-κB on nuclear extracts from pancreatic tissue; format: in vivo, rat; details: for NF-κB activation in the pancreas: rat
Experimental: Specifically, aliquots of nuclear extracts with equal amounts of protein (about 2 to about 10 mg) were mixed in 20 μl reactions with a buffer containing 10 mM HEPES (pH 7.8), 50 mM KCl, 0.1 mM EDTA, 1 mM DTT, 10% (vol/vol) glycerol, and 3 μg of poly(dI-dC).
The samples were electrophoresed at room temperature in 0.5×TBE buffer (1× TBE: 89 mM Tris base, 89 mM boric acid, 2 mM EDTA) on a non-denaturing 4.5% polyacrylamide gel at 200 V. The gels were dried and directly analyzed in the PhosphorImager (Molecular Dynamics, Sunnyvale, Calif.).
Nuclear protein extracts were prepared by methods known in the art. […] Briefly, samples of pancreatic tissue or isolated acini were rinsed in ice-cold PBS and homogenized in hypotonic Buffer A (20 mM β-glycerophosphate, 10 mM HEPES, pH 7.6, 1.5 mM MgCl2, 10 mM KCl, 10 mM Na2MoO4, 0.1 mM Na3VO4, 1 mM dithiothreitol (DTT), 1 mM phenylmethylsulfonyl fluoride (PMSF), 5 μg/ml each of protease inhibitors pepstatin, leupeptin, chymostatin, antipain and aprotinin). After incubating on ice for about 20 to about 25 minutes, the nonionic detergent Igepal CA-630 (Sigma, St. Louis, Mo.) was added to a final concentration of 0.3 to 0.4% (v/v), followed by an additional incubation on ice for about 1 to about 2 minutes. The crude nuclear pellet was collected by microcentrifugation for 30 seconds. The supernatant (cytosolic protein) was removed, and the nuclear pellet was resuspended in the high-salt buffer C (25% glycerol, 20 mM β-glycerophosphate, 10 mM HEPES, 1.5 mM MgCl2, 420 mM NaCl, 0.2 mM EDTA, 10 mM Na2MoO4, 0.1 mM Na3VO4, 1 mM DTT, 1 mM PMSF, 5 μg/ml each of protease inhibitors pepstatin, leupeptin, chymostatin, antipain and aprotinin. After rotating at 4° C. for up to 1 hour, nuclear membranes were pelleted by microcentrifugation for 10 minutes, and the clear supernatant (nuclear extract) was aliquoted and stored at −80° C. Protein concentration in the nuclear extract was determined by the Bio-Rad protein assay (Bio-Rad Laboratories, Hercules, Calif.).

[3] = system: IL-6, TNF-α, KC and iNOS mRNA; assay: RT-PCR for pancreatic mRNA expression of inflammatory molecules; format: in vivo; details: rat
Experimental: To determine whether the effects of curcumin on NF-κB and AP-1 activation translated into changes in the expression of inflammatory molecules, the effect of curcumin on pancreatic mRNA expression of several cytokines and other inflammatory molecules were measured by methods known in the art. See Blinman T A, et al. (2000); Gukovskaya A S, et al. (1999); Gukovsky I, et al. (1998); Pandol S J, et al. (1999); Vaquero E, et al. (2001); and Zaninovic V, et al. (2000). Briefly, total RNA was obtained from pancreatic tissue with TRI reagent (Molecular Research Center, Cincinnati, Ohio) and its quality was verified by ethidium bromide staining of rRNA bands on a denaturing agarose gel. RNA was reverse-transcribed with the SuperScript II preamplification kit (GIBCO-BRL, Rockville, Md.) and subjected to PCR with the rat gene specific, intron-spanning primers set forth in Target sequences were amplified at 56° C. using the same amount of cDNA for all primer sets. The RT-PCR products were all of expected size, and their identity was confirmed by direct sequencing. Negative controls were performed by omitting the RT step or cDNA template from the PCR amplification. The cycle number was adjusted between 22 (for the housekeeping ARP gene) and 36 cycles (for iNOS) in order to yield visible products within the linear amplification range. […]

[4] = system: AP-1; assay: CCK-induced AP-1 activation in isolated pancreatic acinar cells (EMSA); format: cell-based, rat
Experimental: To confirm that the effects of curcumin occur in the pancreatic acinar cell, the effects of curcumin on the activation of NF-κB and AP-1 in vitro in CCK-stimulated pancreatic acini. Pancreatic acini were prepared from rat pancreas using the collagenase digestion method as described by Pandol S J, et al. (1982) J. Biol. Chem. 257:12024–12029, which is herein incorporated by reference, and then incubated at 37° C. in 199 medium (GIBCO, Rockville, Md.) known in the art. […] EMSAs for NF-κB and AP-1 were performed on nuclear proteins extracted from each sample as provided above. Nuclear protein extracts were prepared by methods known in the art. […] Briefly, samples of pancreatic tissue or isolated acini were rinsed in ice-cold PBS and homogenized in hypotonic Buffer A (20 mM β-glycerophosphate, 10 mM HEPES, pH 7.6, 1.5 mM MgCl2, 10 mM KCl, 10 mM Na2MoO4, 0.1 mM Na3VO4, 1 mM dithiothreitol (DTT), 1 mM phenylmethylsulfonyl fluoride (PMSF), 5 μg/ml each of protease inhibitors pepstatin, leupeptin, chymostatin, antipain and aprotinin). After incubating on ice for about 20 to about 25 minutes, the nonionic detergent Igepal CA-630 (Sigma, St. Louis, Mo.) was added to a final concentration of 0.3 to 0.4% (v/v), followed by an additional incubation on ice for about 1 to about 2 minutes. The crude nuclear pellet was collected by microcentrifugation for 30 seconds. The supernatant (cytosolic protein) was removed, and the nuclear pellet was resuspended in the high-salt buffer C (25% glycerol, 20 mM β-glycerophosphate, 10 mM HEPES, 1.5 mM MgCl2, 420 mM NaCl, 0.2 mM EDTA, 10 mM Na2MoO4, 0.1 mM Na3VO4, 1 mM DTT, 1 mM PMSF, 5 μg/ml each of protease inhibitors pepstatin, leupeptin, chymostatin, antipain and aprotinin. After rotating at 4° C. for up to 1 hour, nuclear membranes were pelleted by microcentrifugation for 10 minutes, and the clear supernatant (nuclear extract) was aliquoted and stored at −80° C. Protein concentration in the nuclear extract was determined by the Bio-Rad protein assay (Bio-Rad Laboratories, Hercules, Calif.).

[5] = system: pancreatic acinar cells; assay: LDH release from pancreatic acinar cells; format: cell-based, rat; details: 100 μM curcumin, control acinar cells or cells stimulated with 100 nM CCK-8

With `COc1cc(/C=C/C(=O)CC(=O)/C=C/c2ccc(O)c(OC)c2)ccc1O` [curcumin] the “inhibition of intrapancreatic trypsin activation” value ([1]; EtOH+CCK model) was “greater than 50%”, the “inhibition of intrapancreatic trypsin activation” value ([1]; cerulein model) was “greater than 70%” and the “active trypsin versus pancreatitis without curcumin” value ([1]; cerulein pancreatitis) was “significantly lower; also recorded: significantly inhibited”. The “basal level of active pancreatic trypsin” value ([1]; ethanol-fed rats, EtOH+CCK model, basal) was “unaffected”, the “active trypsin versus pancreatitis without curcumin” value ([1]; ethanol/CCK pancreatitis) was “significantly lower; also recorded: significantly inhibited” and the “NF-κB activation in the pancreas” value ([2]; cerulein pancreatitis) was “inhibits; also recorded: attenuated”. For the same molecule, the “NF-κB activity in the pancreas of control rats” value ([2]; control (vehicle-infused) rats treated with curcumin) was “Virtually no NF-κB activity was detected”, the “NF-κB activation in the pancreas” value ([2]; ethanol/CCK pancreatitis) was “inhibits” and the “pancreatic expression of IL-6, TNF-α, KC and iNOS” value ([3]; cerulein pancreatitis) was “markedly inhibited; also recorded: attenuated”. The “pancreatic expression of IL-6, TNF-α, KC and iNOS” value ([3]; ethanol/CCK pancreatitis) was “markedly inhibited; also recorded: attenuated”, the “CCK-induced activation of AP-1 in isolated acinar cells” value ([4]; 1 h with compound, then 0.1 μM CCK 30 min) was “inhibits; also recorded: abolished; also recorded: blocked; also recorded: attenuates” and the “basal AP-1 binding activity in acinar cells” value ([4]; isolated acinar cells without CCK) was “inhibited”. For the same molecule, the LDH release [5] was “did not cause additional LDH release”.
